Laboratory results as given in patent publication US11254686B1 (Corvus Pharmaceuticals, Inc., priority 2017, dated 2022).
“And” between values parts separate entries of the source, which are not always exact repeats. Equal entries are not always repeated. Where two headings read alike, the source gives them in different places.

Experiments:
[1] = biological target: adenosine A2B receptor (Homo sapiens (Human), UniProt P29275); assay: Adenosine receptor activity assay (Table 1), A2B activity; assay type: biochemical; conditions: for IC50: read-out: Ave A2B cAMP IC50; for Ratio: A2A activity to the A2B activity, A2A/A2B
[2] = biological target: adenosine A2A receptor (Homo sapiens (Human), UniProt P29274); assay: Adenosine receptor activity assay (Table 1), A2A activity; assay type: biochemical; conditions: read-out: Ave A2A cAMP IC50
[3] = biological target: CYP3A4 (Homo sapiens (Human), UniProt P08684); assay: CYP450 inhibition at 10 μM, CYP3A4; assay type: in vitro ADME; conditions: human, 10 μM, read-out: CYP 450 % INH @ 10 μM
[4] = Hepatocyte (Hep) intrinsic clearance, rat; assay type: in vitro ADME; conditions: hepatocytes
[5] = Hepatocyte (Hep) intrinsic clearance, human; assay type: in vitro ADME; conditions: hepatocytes
[6] = biological target: adenosine A1 receptor (Homo sapiens (Human), UniProt P30542); assay: Adenosine receptor activity assay (Table 1), A1 cAMP; assay type: biochemical
[7] = biological target: adenosine A3 receptor (Homo sapiens (Human), UniProt P0DMS8); assay: Adenosine receptor activity assay (Table 1), A3 cAMP; assay type: biochemical
Chain of adenosine A3 receptor (P0DMS8 whole entry): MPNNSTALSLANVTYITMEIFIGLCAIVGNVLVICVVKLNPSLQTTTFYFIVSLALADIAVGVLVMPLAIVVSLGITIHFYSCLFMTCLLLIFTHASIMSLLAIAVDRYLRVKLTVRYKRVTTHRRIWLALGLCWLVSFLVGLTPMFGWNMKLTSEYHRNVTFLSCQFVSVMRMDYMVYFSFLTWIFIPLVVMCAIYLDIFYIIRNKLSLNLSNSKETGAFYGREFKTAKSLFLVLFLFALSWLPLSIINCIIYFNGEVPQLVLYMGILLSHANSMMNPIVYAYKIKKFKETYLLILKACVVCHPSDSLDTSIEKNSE

Chain of adenosine A1 receptor (P30542 whole entry): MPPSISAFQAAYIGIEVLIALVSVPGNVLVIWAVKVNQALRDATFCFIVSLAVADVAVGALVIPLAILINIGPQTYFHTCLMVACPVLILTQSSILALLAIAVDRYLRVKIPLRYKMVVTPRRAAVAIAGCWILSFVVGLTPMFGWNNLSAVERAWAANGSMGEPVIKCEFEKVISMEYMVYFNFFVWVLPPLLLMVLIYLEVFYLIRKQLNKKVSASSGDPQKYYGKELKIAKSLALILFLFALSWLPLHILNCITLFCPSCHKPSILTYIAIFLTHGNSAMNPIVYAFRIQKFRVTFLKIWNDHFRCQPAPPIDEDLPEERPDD
Chain of adenosine A2B receptor (P29275 whole entry): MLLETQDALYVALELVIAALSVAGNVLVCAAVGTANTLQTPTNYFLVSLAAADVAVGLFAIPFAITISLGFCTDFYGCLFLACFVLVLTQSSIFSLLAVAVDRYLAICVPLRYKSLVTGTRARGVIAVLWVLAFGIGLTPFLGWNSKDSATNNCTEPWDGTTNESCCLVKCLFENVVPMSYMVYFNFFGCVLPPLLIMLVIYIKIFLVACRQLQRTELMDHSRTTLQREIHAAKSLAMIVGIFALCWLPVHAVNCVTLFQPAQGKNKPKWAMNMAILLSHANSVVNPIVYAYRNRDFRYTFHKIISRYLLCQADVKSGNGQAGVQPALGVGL
Chain of adenosine A2A receptor (P29274 whole entry): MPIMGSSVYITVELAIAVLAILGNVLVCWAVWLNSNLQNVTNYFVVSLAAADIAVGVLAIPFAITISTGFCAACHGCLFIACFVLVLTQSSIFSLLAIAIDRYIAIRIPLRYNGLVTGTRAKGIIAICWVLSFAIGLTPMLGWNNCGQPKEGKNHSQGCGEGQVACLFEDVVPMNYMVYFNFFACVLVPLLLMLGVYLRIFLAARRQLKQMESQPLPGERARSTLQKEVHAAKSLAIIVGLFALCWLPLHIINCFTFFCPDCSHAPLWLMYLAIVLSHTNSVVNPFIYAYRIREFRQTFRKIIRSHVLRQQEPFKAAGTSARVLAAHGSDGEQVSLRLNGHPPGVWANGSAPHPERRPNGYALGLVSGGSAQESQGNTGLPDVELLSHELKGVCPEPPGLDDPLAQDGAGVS
Chain of CYP3A4 (P08684 whole entry): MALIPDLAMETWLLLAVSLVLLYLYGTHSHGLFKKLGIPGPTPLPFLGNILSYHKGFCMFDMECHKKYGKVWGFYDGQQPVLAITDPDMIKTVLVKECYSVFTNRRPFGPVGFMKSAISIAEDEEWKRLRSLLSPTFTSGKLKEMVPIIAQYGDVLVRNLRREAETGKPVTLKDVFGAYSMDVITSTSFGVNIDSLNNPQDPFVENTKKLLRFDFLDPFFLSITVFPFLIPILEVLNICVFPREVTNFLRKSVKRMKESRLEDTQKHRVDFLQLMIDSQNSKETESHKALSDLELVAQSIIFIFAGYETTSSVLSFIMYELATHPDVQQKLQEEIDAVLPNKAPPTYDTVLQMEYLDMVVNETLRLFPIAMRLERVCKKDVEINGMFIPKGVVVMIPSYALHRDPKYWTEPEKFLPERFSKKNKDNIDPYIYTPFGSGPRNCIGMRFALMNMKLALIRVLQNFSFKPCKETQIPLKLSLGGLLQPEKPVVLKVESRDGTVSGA

| IC50 [1] [nM] | IC50 [2] [nM] | inhibition at 10 µM [3] [%] | hepatocyte CLint [4] [µL/min/1e6 cells] | hepatocyte CLint [5] [µL/min/1e6 cells] | Ratio [1] | IC50 ([1]; cAMP) [nM] | IC50 ([2]; cAMP) [nM] | IC50 [6] [nM] | IC50 [7] [nM] | Structure (SMILES) |
| --- | --- | --- | --- | --- | --- | --- | --- | --- | --- | --- |
| 10 to 50 | 100 to 500 | 22.9 | 112 | 68.4 | – | – | – | – | – | O=C(c1nc(NCc2cccc(Cl)c2)nc2ccsc12)N1CC(O)C1 [Example Z122, (2-((3-Chlorobenzyl)amino)thieno[3,2-d]pyrimidin-4-yl)(3-hydroxyazetidin-1-yl)methanone] |
| – | – | – | – | – | 0.85 | 10 to 50 | < 10 | > 500 | 100 to 500 | Cc1cccc(C(=O)NC2CN(C(=O)c3nc(N[C@@H](C)c4cncc(F)c4)nc4ccsc34)C2)c1 [Example Z626, (S)—N-(1-(2-((1-(5-Fluoropyridin-3-yl)ethyl)amino)thieno[3,2-d]pyrimidine-4-carbonyl)azetidin-3-yl)-3-methylbenzamide] |
| – | – | – | – | – | 1.02 | 10 to 50 | 10 to 50 | > 500 | > 500 | C[C@H](Nc1nc(C(=O)N2CC(NC(=O)C3CCOCC3)C2)c2sccc2n1)c1cncc(F)c1 [Example Z622, (S)—N-(1-(2-((1-(5-Fluoropyridin-3-yl)ethyl)amino)thieno[3,2-d]pyrimidine-4-carbonyl)azetidin-3-yl)tetrahydro-2H-pyran-4-carboxamide] |
| – | – | – | – | – | 0.47 | < 10 | < 10 | > 500 | 100 to 500 | C[C@H](Nc1nc(C(=O)N2CC(NC(=O)C(C)(C)C(F)(F)F)C2)c2sccc2n1)c1cncc(F)c1 [Example Z606, (S)-3,3,3-Trifluoro-N-(1-(2-((1-(5-fluoropyridin-3-yl)ethyl)amino)thieno[3,2-d]pyrimidine-4-carbonyl)azetidin-3-yl)-2,2-dimethylpropanamide] |
| – | – | – | – | – | 0.24 | < 10 | < 10 | > 500 | 10 to 50 | C[C@H](Nc1nc(C(=O)N2CC(NC(=O)C3CCCCC3)C2)c2sccc2n1)c1cncc(F)c1 [Example Z610, (S)—N-(1-(2-((1-(5-Fluoropyridin-3-yl)ethyl)amino)thieno[3,2-d]pyrimidine-4-carbonyl)azetidin-3-yl)cyclohexanecarboxamide] |
| – | – | – | – | – | 6.42 | 10 to 50 | 50 to 100 | > 500 | > 500 | C[C@H](Nc1nc(C(=O)N2CC(NC(=O)c3ccncc3)C2)c2sccc2n1)c1cncc(F)c1 [Example Z619, (S)—N-(1-(2-((1-(5-Fluoropyridin-3-yl)ethyl)amino)thieno[3,2-d]pyrimidine-4-carbonyl)azetidin-3-yl)isonicotinamide] |
| – | – | – | – | – | 0.68 | 10 to 50 | 10 to 50 | > 500 | > 500 | Cc1csc2c(C(=O)N3CC(NC(=O)c4cccc(Cl)c4)C3)nc(N[C@@H](C)c3cncc(F)c3)nc12 [Example Z625, (S)-3-Chloro-N-(1-(2-((1-(5-fluoropyridin-3-yl)ethyl)amino)-7-methylthieno[3,2-d]pyrimidine-4-carbonyl)azetidin-3-yl)benzamide] |
| – | – | – | – | – | 1.76 | < 10 | < 10 | > 500 | 100 to 500 | C[C@H](Nc1nc(C(=O)N2CC(NC(=O)c3ccccc3F)C2)c2sccc2n1)c1cncc(F)c1 [Example Z614, (S)-2-Fluoro-N-(1-(2-((1-(5-fluoropyridin-3-yl)ethyl)amino)thieno[3,2-d]pyrimidine-4-carbonyl)azetidin-3-yl)benzamide] |
| – | – | – | – | – | 0.80 | < 10 | < 10 | > 500 | 100 to 500 | C[C@H](Nc1nc(C(=O)N2CC(NC(=O)NC(C)(C)C)C2)c2sccc2n1)c1cncc(F)c1 [Example Z611, (S)-1-(tert-Butyl)-3-(1-(2-((1-(5-fluoropyridin-3-yl)ethyl)amino)thieno[3,2-d]pyrimidine-4-carbonyl)azetidin-3-yl)urea] |
| – | – | – | – | – | 0.15 and 0.25 | 10 to 50 | < 10 | > 500 | 100 to 500 | C[C@H](Nc1nc(C(=O)N2CC(NC(=O)C3(C)CCC3)C2)c2sccc2n1)c1cncc(F)c1 [Example Z627, (S)—N-(1-(2-((1-(5-Fluoropyridin-3-yl)ethyl)amino)thieno[3,2-d]pyrimidine-4-carbonyl)azetidin-3-yl)-1-methylcyclobutane-1-carboxamide] |
| – | – | – | – | – | 0.19 | 10 to 50 | < 10 | > 500 | 100 to 500 | C[C@H](Nc1nc(C(=O)N2CC(NC(=O)C3(C(F)(F)F)CCC3)C2)c2sccc2n1)c1cncc(F)c1 [Example Z643, (S)—N-(1-(2-((1-(5-Fluoropyridin-3-yl)ethyl)amino)thieno[3,2-d]pyrimidine-4-carbonyl)azetidin-3-yl)-1-(trifluoromethyl)cyclobutane-1-carboxamide] |
| – | – | – | – | – | 1.22 | 10 to 50 | 10 to 50 | > 500 | 100 to 500 | Cc1cc2nc(N[C@@H](C)c3cncc(F)c3)nc(C(=O)N3CC(NC(=O)[C@H]4CCOC4)C3)c2s1 [Example Z599, (S)—N-(1-(2-(((S)-1-(5-Fluoropyridin-3-yl)ethyl)amino)-6-methylthieno[3,2-d]pyrimidine-4-carbonyl)azetidin-3-yl)tetrahydrofuran-3-carboxamide] |
| – | – | – | – | – | 1.02 | 10 to 50 | 10 to 50 | > 500 | 100 to 500 | C[C@H](Nc1nc(C(=O)N2CC(NC(=O)CCC3CCOCC3)C2)c2sccc2n1)c1cncc(F)c1 [Example Z612, (S)—N-(1-(2-((1-(5-Fluoropyridin-3-yl)ethyl)amino)thieno[3,2-d]pyrimidine-4-carbonyl)azetidin-3-yl)-3-(tetrahydro-2H-pyran-4-yl)propanamide] |
| – | – | – | – | – | 0.42 | 10 to 50 | < 10 | > 500 | > 500 | C[C@H](Nc1nc(C(=O)N2CC(NC(=O)C3(C)CCOC3)C2)c2sccc2n1)c1cncc(F)c1 (stereo partly drawn) [Example Z608, N-(1-(2-(((S)-1-(5-Fluoropyridin-3-yl)ethyl)amino)thieno[3,2-d]pyrimidine-4-carbonyl)azetidin-3-yl)-3-methyltetrahydrofuran-3-carboxamide] |
| – | – | – | – | – | 0.65 | 10 to 50 | 10 to 50 | > 500 | 100 to 500 | Cc1cc(C)cc(C(=O)NC2CN(C(=O)c3nc(N[C@@H](C)c4cncc(F)c4)nc4ccsc34)C2)c1 [Example Z646, (S)—N-(1-(2-((1-(5-Fluoropyridin-3-yl)ethyl)amino)thieno[3,2-d]pyrimidine-4-carbonyl)azetidin-3-yl)-3,5-dimethylbenzamide] |
| – | – | – | – | – | 0.52 | 10 to 50 | < 10 | > 500 | 50 to 100 | C[C@H](Nc1nc(C(=O)N2CC(NC(=O)C3CC(C)(C)C3)C2)c2sccc2n1)c1cncc(F)c1 [Example Z638, (S)—N-(1-(2-((1-(5-Fluoropyridin-3-yl)ethyl)amino)thieno[3,2-d]pyrimidine-4-carbonyl)azetidin-3-yl)-3,3-dimethylcyclobutane-1-carboxamide] |
| – | – | – | – | – | 2.55 | < 10 | < 10 | > 500 | 100 to 500 | C[C@H](Nc1nc(C(=O)N2CC(NC(=O)c3cccc(F)c3)C2)c2sccc2n1)c1cncc(F)c1 [Example Z613, (S)-3-Fluoro-N-(1-(2-((1-(5-fluoropyridin-3-yl)ethyl)amino)thieno[3,2-d]pyrimidine-4-carbonyl)azetidin-3-yl)benzamide] |
| – | – | – | – | – | 1.86 | 10 to 50 | 50 to 100 | > 500 | < 10 | C[C@H](Nc1nc(C(=O)N2CC(C)(NC(=O)C3CC3)C2)c2sccc2n1)c1cncc(F)c1 [Example Z621, (S)—N-(1-(2-((1-(5-Fluoropyridin-3-yl)ethyl)amino)thieno[3,2-d]pyrimidine-4-carbonyl)-3-methylazetidin-3-yl)cyclopropanecarboxamide] |
| – | – | – | – | – | 0.57 | 10 to 50 | < 10 | > 500 | 100 to 500 | C[C@H](Nc1nc(C(=O)N2CC(NC(=O)C(C)(C)C)C2)c2sccc2n1)c1cncc(Cl)c1 [Example Z642, (S)—N-(1-(2-((1-(5-Chloropyridin-3-yl)ethyl)amino)thieno[3,2-d]pyrimidine-4-carbonyl)azetidin-3-yl)pivalamide] |
| – | – | – | – | – | 3.67 | < 10 | 10 to 50 | > 500 | > 500 | C[C@H](Nc1nc(C(=O)N2CC(NC(=O)c3ccc(Cl)cc3)C2)c2sccc2n1)c1cncc(F)c1 [Example Z617, (S)-4-Chloro-N-(1-(2-((1-(5-fluoropyridin-3-yl)ethyl)amino)thieno[3,2-d]pyrimidine-4-carbonyl)azetidin-3-yl)benzamide] |
| – | – | – | – | – | 1.24 | 10 to 50 | 10 to 50 | > 500 | 100 to 500 | C[C@H](Nc1nc(C(=O)N2CC(NC(=O)C3CCC(F)(F)CC3)C2)c2sccc2n1)c1cncc(F)c1 [Example Z640, (S)-4,4-Difluoro-N-(1-(2-((1-(5-fluoropyridin-3-yl)ethyl)amino)thieno[3,2-d]pyrimidine-4-carbonyl)azetidin-3-yl)cyclohexane-1-carboxamide] |
